Earlier results, collected in US8287898B2, “Compositions and methods for body weight management” (The Procter & Gamble Company, priority 2000, dated 2012).
Like-named read-outs stand apart in the source and are kept apart here.

What was measured:
[1] = sham feeding rat model
[2] = jejunally infused neat, 0.2 mL/hr for seven hours, rats
[3] = solutions infused in the duodenum or mid-gut (jejunum), or into the colon; rats, three hours of feeding

| Structure (SMILES) | total caloric intake ([1]; duodenally infused emulsion) | total caloric intake ([1]; ileal infusion) | total daily caloric intake [2] | total caloric intake [3] |
| --- | --- | --- | --- | --- |
| CCCCC/C=C\C/C=C\CCCCCCCC(=O)O [linoleic acid] | reduce total caloric intake | do not | significantly reduce |  |
| CC/C=C\C/C=C\C/C=C\CCCCCCCC(=O)O [linolenic] | somewhat less effective |  |  |  |
| CCCCCCCC/C=C\CCCCCCCC(=O)O [oleic acid] | somewhat less effective |  | significantly reduce |  |
| N[C@@H](Cc1ccccc1)C(=O)O [phenylalanine] |  |  |  | suppressed total caloric intake |
| N[C@@H](Cc1c[nH]c2ccccc12)C(=O)O [tryptophan] |  |  |  | suppressed total caloric intake |
